Laboratory results reported in ChEMBL document CHEMBL3525947, “Potential role of UGT1A4 promoter SNPs in anastrozole pharmacogenomics” (Drug Metab Dispos, 2013).

How the values were obtained:
Type in all cases: ADME
Liver microsome [1] = assay: Drug metabolism human liver microsomes treated with 100 uM anastrozole assessed as retention time by mass spectrometry analysis
Liver microsome [2] = assay: Drug metabolism human liver microsomes treated with 100 uM lamotrigine assessed as retention time by mass spectrometry analysis
[3] = Drug metabolism in human liver microsomes assessed as UGT1A4 -163G>A(AG) mutant-mediated compound glucuronidation at 100 uM by mass spectrometry analysis
[4] = Drug metabolism in human liver microsomes assessed as UGT1A4 142T>G (TT) mutant-mediated compound glucuronidation at 100 uM by mass spectrometry analysis
[5] = Drug metabolism in human liver microsomes assessed as UGT1A4 -163G>A(GG) variant-mediated compound glucuronidation at 100 uM by mass spectrometry analysis
[6] = Drug metabolism in human liver microsomes assessed as UGT1A4 -217T>G(TT) variant-mediated compound glucuronidation at 100 uM by mass spectrometry analysis
[7] = Drug metabolism in human liver microsomes assessed as UGT1A4 70C>A (CC) mutant-mediated compound glucuronidation at 100 uM by mass spectrometry analysis
[8] = Drug metabolism in human liver microsomes assessed as UGT1A4 -217T>G(GG) mutant-mediated compound glucuronidation at 100 uM by mass spectrometry analysis
[9] = Drug metabolism in human liver microsomes assessed as UGT1A4 -163G>A(AA) variant-mediated compound glucuronidation at 100 uM by mass spectrometry analysis
Liver microsome [10] = assay: Drug metabolism in human liver microsomes assessed as glucuronide formation per mg protein by mass spectrometry analysis
[11] = Drug metabolism in human liver microsomes assessed as UGT1A4 -219C>T(CC) mutant-mediated compound glucuronidation at 100 uM by mass spectrometry analysis
[12] = Drug metabolism in human liver microsomes assessed as UGT1A4 70C>A (AC) mutant-mediated compound glucuronidation at 100 uM by mass spectrometry analysis
[13] = Drug metabolism in human liver microsomes assessed as UGT1A4 -217T>G(TG) variant-mediated compound glucuronidation at 100 uM by mass spectrometry analysis
[14] = Drug metabolism in human liver microsomes assessed as UGT1A4 142T>G (GG) mutant-mediated compound glucuronidation at 100 uM by mass spectrometry analysis
[15] = Drug metabolism in human liver microsomes assessed as UGT1A4 -219C>T(TT) mutant-mediated compound glucuronidation at 100 uM by mass spectrometry analysis
Liver microsome [16] = assay: Drug metabolism in pooled human liver microsomes assessed as IC50 for hecogenin-mediated inhibition of anastrozole glucuronidation after 90 mins; details: 1.5 h
[17] = target: T1, UDP-glucuronosyltransferase 1A4 (Homo sapiens, UniProt P22310); assay: Drug metabolism assessed as hecogenin-mediated inhibition of human recombinant UGT1A4-catalyzed anastrozole glucuronidation after 90 mins
T1 sequence (P22310 whole entry): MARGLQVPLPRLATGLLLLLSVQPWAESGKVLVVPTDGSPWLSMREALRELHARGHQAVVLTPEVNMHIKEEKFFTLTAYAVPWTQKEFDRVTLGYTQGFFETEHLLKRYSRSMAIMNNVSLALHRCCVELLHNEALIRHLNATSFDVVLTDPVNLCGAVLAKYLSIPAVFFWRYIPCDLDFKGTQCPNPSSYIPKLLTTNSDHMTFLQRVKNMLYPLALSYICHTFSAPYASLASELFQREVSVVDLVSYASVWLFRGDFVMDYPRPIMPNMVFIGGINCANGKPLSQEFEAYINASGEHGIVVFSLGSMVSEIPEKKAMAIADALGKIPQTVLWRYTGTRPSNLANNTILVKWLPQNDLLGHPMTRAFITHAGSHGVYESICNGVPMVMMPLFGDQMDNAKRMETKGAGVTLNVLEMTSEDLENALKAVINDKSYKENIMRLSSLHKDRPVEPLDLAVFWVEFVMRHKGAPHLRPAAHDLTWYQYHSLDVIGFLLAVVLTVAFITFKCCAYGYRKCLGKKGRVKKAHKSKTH

[18] = Drug metabolism in human liver microsomes assessed as UGT1A4 -36G>A (AG) variant-mediated compound glucuronidation at 100 uM by mass spectrometry analysis
[19] = Drug metabolism in human liver microsomes assessed as UGT1A4 70C>A (AA) mutant-mediated compound glucuronidation at 100 uM by mass spectrometry analysis
[20] = Drug metabolism in human liver microsomes assessed as UGT1A4 -219C>T(CT) mutant-mediated compound glucuronidation at 100 uM by mass spectrometry analysis
[21] = Drug metabolism in human liver microsomes assessed as UGT1A4 -36G>A (GG) mutant-mediated compound glucuronidation at 100 uM by mass spectrometry analysis
[22] = Drug metabolism in human liver microsomes assessed as UGT1A4 142T>G (TG) mutant-mediated compound glucuronidation at 100 uM by mass spectrometry analysis
[23] = Drug metabolism in human liver microsomes assessed as UGT1A4 -36G>A (AA) variant-mediated compound glucuronidation at 100 uM by mass spectrometry analysis
Liver microsome [24] = assay: Drug metabolism in human liver microsomes assessed as retention time at 100 uM by mass spectrometry analysis

Work on `CC(C)(C#N)c1cc(Cn2c[n+]([C@@H]3O[C@H](C(=O)[O-])[C@@H](O)[C@H](O)[C@H]3O)cn2)cc(C(C)(C)C#N)c1` yielded a Retention_time (Liver microsome [1]) of 2.86 min.

For `Nc1nc(N)[n+]([C@@H]2O[C@H](C(=O)[O-])[C@@H](O)[C@H](O)[C@H]2O)nc1-c1cccc(Cl)c1Cl`, the Retention_time (Liver microsome [2]) was 1.34 min.

With `CC(C)(C#N)c1cc(Cn2cncn2)cc(C(C)(C)C#N)c1` [ANASTROZOLE] the Drug metabolism [3] was 0.7 pmol/min/µg, the Drug metabolism [4] was 0.5 pmol/min/µg and the Drug metabolism [5] was 0.4 pmol/min/µg. For the same compound, the Drug metabolism [6] was 0.3 pmol/min/µg, the Drug metabolism [7] was 0.4 pmol/min/µg and the Drug metabolism [8] was 1.9 pmol/min/µg. It also gave a Drug metabolism [9] of 0.8 pmol/min/µg, a Drug metabolism (Liver microsome [10]) of 0.023 pmol/min and a Drug metabolism [11] of 0.4 pmol/min/µg. It also gave a Drug metabolism [12] of 0.3 pmol/min/µg, a Drug metabolism [13] of 1.5 pmol/min/µg and a Drug metabolism [14] of 0.3 pmol/min/µg. For the same compound, the Drug metabolism [15] was 1 pmol/min/µg, the IC50 (Liver microsome [16]) was 15 µM and the IC50 [17] was 4.72 µM. It also gave a Drug metabolism [18] of 1 pmol/min/µg, a Drug metabolism [19] of 0.8 pmol/min/µg and a Drug metabolism [20] of 0.9 pmol/min/µg. The Drug metabolism [21] was 0.3 pmol/min/µg, the Drug metabolism [22] was 0.3 pmol/min/µg and the Drug metabolism [23] was 1.3 pmol/min/µg. It also gave a Retention_time (Liver microsome [24]) of 3.95 min.

In the case of `Nc1nnc(-c2cccc(Cl)c2Cl)c(N)n1` [LAMOTRIGINE], the Drug metabolism (Liver microsome [10]) is reported as “metabolite_detected” and the Retention_time (Liver microsome [24]) is reported as 1.63 min.
